Results: patent US20090280196A1, “CISSUS […] PLANT EXTRACTS FOR TREATING OSTEOPOROSIS AND THE EXTRACTION PROCESS THEREOF” (priority 2006, published 2009)

Key:
[1] = test system: osteoclasts (osteoclastic bone resorption); assay: Bone resorption hit screening, CTX release from osteoclasts on bovine bone slices; assay type: cell-based, human; settings: positive control, V-ATPase blocker, concentration not given
Text: Studies have determined that osteoclasts are largely derived from CD14 positive monocytes (J. Haemotol, 1999 July; 106(1):167-70). Clonal analysis of haematopoietic cells by surface phenotypes has been used to further identify osteoclast precursor by characterizing osteoclast like cells distinct from other haematopoietic progenitors (Lee et. al; 1992b Muguruma & Lee; 1988). Surface phenotype analysis has shown that human osteoclasts are derived from CD14 monocytes (Massey & Flanagan, 1999). CD 14 marker is strongly expressed on monocytes, the putative osteoclast precursor in peripheral blood and CD14 positive monocytes have been selected for osteoclastogenesis. (Clin. Sci (Lond) 2000, August, 99(2): 133-40).
The osteoclasts were isolated as CD14 positive monocytes and differentiated into osteoclasts for 10-12 days. Hereafter, the osteoclasts were lifted by trypsin, counted and seeded on bovine bone slices at a density of 40000 cells per bone slice. The osteoclasts were seeded on the bone slices for one day before the plant extracts were added. The osteoclasts were hereby allowed to attach and initiate resorption. […]
The bone resorption experiment was ended after 5 days of incubation and the cell viability was measured by the use of the AlamarBlue assay. Bone resorption was evaluated as the determination of the CTX release.

[2] = cited from earlier work

Structure (SMILES) | inhibition of osteoclastic bone resorption compared to DMSO [1] | increase of bone mineral density in the spine ([2]; in 18 months, once daily subcutaneous injection) | reduction of the risk of fracture ([2]; patients)
CO/C1=C\C(C)=C\[C@@H](C)[C@@H](O)[C@@H](C)C/C(C)=C/C=C/[C@H](OC)[C@@H]([C@@H](C)[C@@H](O)[C@H](C)[C@@]2(O)C[C@@H](O)[C@H](C)[C@@H](C(C)C)O2)OC1=O [Bafilomycin] | approximately 80% |  | 
CC[C@H](C)[C@H](NC(=O)[C@H](CCC(=O)O)NC(=O)[C@H](CO)NC(=O)[C@@H](NC(=O)[C@@H](N)CO)C(C)C)C(=O)N[C@@H](CCC(N)=O)C(=O)N[C@@H](CC(C)C)C(=O)N[C@@H](CCSC)C(=O)N[C@@H](Cc1cnc[nH]1)C(=O)N[C@@H](CC(N)=O)C(=O)N[C@@H](CC(C)C)C(=O)NCC(=O)N[C@@H](CCCCN)C(=O)N[C@@H](Cc1cnc[nH]1)C(=O)N[C@@H](CC(C)C)C(=O)N[C@@H](CC(N)=O)C(=O)N[C@@H](CO)C(=O)N[C@@H](CCSC)C(=O)N[C@@H](CCC(=O)O)C(=O)N[C@@H](CCCN=C(N)N)C(=O)N[C@H](C(=O)N[C@@H](CCC(=O)O)C(=O)N[C@@H](Cc1c[nH]c2ccccc12)C(=O)N[C@@H](CC(C)C)C(=O)N[C@@H](CCCN=C(N)N)C(=O)N[C@@H](CCCCN)C(=O)N[C@@H](CCCCN)C(=O)N[C@@H](CC(C)C)C(=O)N[C@@H](CCC(N)=O)C(=O)N[C@@H](CC(=O)O)C(=O)N[C@H](C(=O)N[C@@H](Cc1cnc[nH]1)C(=O)N[C@@H](CC(N)=O)C(=O)N[C@@H](Cc1ccccc1)C(=O)O)C(C)C)C(C)C [teriparatide] |  | ≤ 13% | ≤ 90%
